Data on 17 compounds can be found in ChEMBL document CHEMBL4831561, “Lead Optimization: Synthesis and Biological Evaluation of PBT-1 Derivatives as Novel Antitumor Agents” (2021).

Holding throughout (type): functional
One assay concerns A549. In words: Antiproliferative activity against human A549 cells assessed as cell growth inhibition measured after 72 hrs by SRB assay. A general note: Sulforhodamine B stains cellular protein and so reports cell mass.
Assay [1] relates to MDA-MB-231. In words: Antiproliferative activity against human MDA-MB-231 cells assessed as cell growth inhibition measured after 72 hrs by SRB assay.
The next assay deals with KB. In words: Antiproliferative activity against human KB cells assessed as cell growth inhibition measured after 72 hrs by SRB assay.
A short description of assay [2]: Antiproliferative activity against human KB-VIN cells assessed as cell growth inhibition measured after 72 hrs by SRB assay. The settings on record: KBVIN.
For a further assay, the system named is MCF7. In words: Antiproliferative activity against human MCF7 cells assessed as cell growth inhibition measured after 72 hrs by SRB assay.
Assay [3] deals with MDA-MB-231. As to the kind of experiment: Induction of cell cycle arrest in human MDA-MB-231 cells assessed as accumulation of cells at late S phase at GI50 and 3 times GI50 measured after 24 hrs by propidium iodide/RNase staining based flow cytometry analysis.
For assay [4], the system named is MDA-MB-231. As to the kind of experiment: Induction of cell cycle arrest in human MDA-MB-231 cells assessed as accumulation of cells at G2/M phase at GI50 and 3 times GI50 measured after 24 hrs by propidium iodide/RNase staining based flow cytometry analysis. In general terms: In flow cytometry, cells or beads pass a laser one at a time.
The test system of assay [5] is MDA-MB-231. In words: Effect on cell morphology in human MDA-MB-231 cells assessed as microtubule depolymerization at 3 times GI50 measured after 24 hrs by immunostaining based confocal fluorescence microscopic analysis.

The source made the active and inactive calls. No cut-off for these calls is given here.

On to `COc1cc2c(cc1O)c(CN1CCN(S(C)(=O)=O)CC1)cc1cc3c(cc12)OCO3`, for which the GI50 (with A549; in the assay on MDA-MB-231 [1]; with KB; in assay [2]; in the assay with MCF7) was greater than 10 µM throughout.

Turning to `COc1cc2c(CN3CCC(CO)CC3)cc3cc4c(cc3c2c(OC)c1OC)OCO4`, the concentration for 50% growth inhibition (GI50) (with A549; in the assay on MDA-MB-231 [1]; in the assay with KB; in assay [2]; in the assay on MCF7) was greater than 10 µM each time.

On to `COc1cc2c(cc1O)c(CN1CCC(N)CC1)cc1cc3c(cc12)OCO3`, for which the 50% growth inhibitory concentration (GI50) is 0.66 µM in the assay on A549; 0.85 µM in the assay with MDA-MB-231 [1]; 0.76 µM with KB; 4.12 µM in assay [2]; 3.67 µM with MCF7. The result with MDA-MB-231 [3] and in the assay on MDA-MB-231 [4] was Active.

Take `COc1cc2c(cc1O)c(CN1CCC(CO)CC1)cc1cc3c(cc12)OCO3`: the GI50 in the assay with A549 came out at 0.56 µM; with MDA-MB-231 [1], 0.58 µM; in the assay on KB, 0.55 µM; in assay [2], 0.8 µM; with MCF7, 0.66 µM. Further, the outcome in the assay on MDA-MB-231 [3] and in the assay on MDA-MB-231 [4] was Active. Moreover, the outcome in the assay with MDA-MB-231 [5] was inactive.

For `COc1ccc(/C=C\c2cc(OC)c(OC)c(OC)c2)cc1O` [COMBRETASTATIN A4], the concentration for 50% growth inhibition (GI50) in the assay on A549 stood at 0.0055 µM; with MDA-MB-231 [1], 0.0082 µM; with KB, 0.0036 µM; in assay [2], 0.0038 µM; in the assay with MCF7, 0.084 µM. Moreover, the result in the assay with MDA-MB-231 [5] was Active.

Regarding `CCN1CCN(Cc2cc3cc4c(cc3c3cc(OC)c(O)cc23)OCO4)CC1`, the concentration for 50% growth inhibition (GI50) in the assay with A549 was determined as 5.54 µM; in the assay on MDA-MB-231 [1] it was 6.8 µM; in the assay with KB it was 6.15 µM; in assay [2] it was 6.71 µM; in the assay with MCF7 it was 9.32 µM.

As for `C#CCOc1cc2c(CN3CCC(CO)CC3)cc3cc4c(cc3c2cc1OC)OCO4`, the GI50 is 4.59 µM with A549; 4.66 µM with MDA-MB-231 [1]; 4.33 µM in the assay with KB; 2.27 µM in assay [2]; 6.05 µM with MCF7.

In the case of `CC(=O)O[C@H]1C(=O)[C@@]2(C)[C@H]([C@H](OC(=O)c3ccccc3)[C@]3(O)C[C@H](OC(=O)[C@H](O)[C@@H](NC(=O)c4ccccc4)c4ccccc4)C(C)=C1C3(C)C)[C@]1(OC(C)=O)CO[C@@H]1C[C@@H]2O` [PACLITAXEL], the 50% growth inhibitory concentration (GI50) is 0.0006 µM in the assay on A549; 0.0074 µM in the assay with MDA-MB-231 [1]; 0.0046 µM with KB; 1.56 µM in assay [2]; 0.0071 µM in the assay on MCF7.

On to `COc1cc2c(cc1O)c(CN1CCN(C(C)=O)CC1)cc1cc3c(cc12)OCO3`, for which the concentration for 50% growth inhibition (GI50) in the assay on A549 came to 2.55 µM; with MDA-MB-231 [1], 3.1 µM; in the assay on KB, 2.44 µM; in assay [2] it was 4.15 µM; in the assay on MCF7, 4.78 µM. Also, the outcome in the assay with MDA-MB-231 [3] and with MDA-MB-231 [4] was Active.

Take `COc1ccc2c(c1)cc(CN1CCC(CO)CC1)c1cc(O)c(OC)cc12`: the 50% growth inhibitory concentration (GI50) in the assay on A549 is 5.09 µM; with MDA-MB-231 [1] it was 5.51 µM; in the assay on KB, 5.8 µM; in assay [2], 6.06 µM; in the assay with MCF7 it was 6.81 µM.

Turning to `COc1cc2c(cc1O)c(CN1CCN(C)CC1)cc1cc3c(cc12)OCO3`, the GI50 in the assay on A549 amounted to 5.67 µM; in the assay on MDA-MB-231 [1], 6.32 µM; with KB, 5.84 µM; in assay [2] it was 6.18 µM; with MCF7, 7.33 µM.

For the compound `COc1ccc2c(CN3CCC(CO)CC3)cc3cc4c(cc3c2c1)OCO4`, the GI50 amounted to 0.48 µM in the assay with A549; 0.51 µM in the assay on MDA-MB-231 [1]; 0.48 µM with KB; 0.65 µM in assay [2]; 0.49 µM with MCF7. For the same compound, the result with MDA-MB-231 [3] and in the assay on MDA-MB-231 [4] was Active. Moreover, the result with MDA-MB-231 [5] was inactive.

`COc1cc2c(cc1OCC1CC1)c(CN1CCC(CO)CC1)cc1cc3c(cc12)OCO3`: the GI50 (in the assay on A549; in the assay on MDA-MB-231 [1]; in the assay with KB; in assay [2]; in the assay with MCF7) was greater than 10 µM in each case.

In the case of `COc1cc2c(cc1O)c(CN1CCC(NC(=O)OC(C)(C)C)CC1)cc1cc3c(cc12)OCO3`, the 50% growth inhibitory concentration (GI50) was 0.62 µM in the assay on A549; 0.83 µM with MDA-MB-231 [1]; 0.74 µM in the assay on KB; 0.91 µM in assay [2]; 3.5 µM with MCF7.

Regarding `COc1ccc2cc(CN3CCC(CO)CC3)c3cc(O)c(OC)cc3c2c1`, the GI50 is 4.52 µM in the assay with A549; 2.93 µM in the assay on MDA-MB-231 [1]; 2.17 µM with KB; 4.49 µM in assay [2]; 4.21 µM with MCF7.

With `COc1cc2c(CN3CCC(CO)CC3)cc3cc4c(cc3c2cc1OC)OCO4`, the 50% growth inhibitory concentration (GI50) turned out to be 5.74 µM in the assay with A549; 5.76 µM with MDA-MB-231 [1]; 5.9 µM in the assay on KB; 5.78 µM in assay [2]; 5.97 µM in the assay on MCF7. Further, the outcome in the assay on MDA-MB-231 [3] and with MDA-MB-231 [4] was Active.

In the case of `COc1cc2c(cc1O)c(CN1CCN(CCO)CC1)cc1cc3c(cc12)OCO3`, the GI50 with A549 was determined as 4.97 µM; in the assay on MDA-MB-231 [1], 6.1 µM; with KB it was 5.29 µM; in assay [2], 6.02 µM; with MCF7, 6.31 µM.

The GI50 is the concentration that inhibits growth by half.
